Results: ChEMBL document CHEMBL1817622, “Synthesis, structure-activity relationship and biological evaluation of novel N-substituted matrinic acid derivatives as host heat-stress cognate 70 (Hsc70) down-regulators” (2011)
Calls of active or inactive are those of the source. No cut-off for these calls is given here.

What was measured:
[1] = tested on: HepG2 2.2.15; assay: Inhibition of Hsc70 mRNA expression in human HepG2(2.2.15) cells at 100 ug/ml after 24 hrs by RT-PCR analysis; assay type: functional; conditions: HepG2 2.2.15, 24 h
[2] = tested on: HepG2 2.2.15; assay: Ratio of […] to compound inhibition of mRNA expression in human HepG2(2.2.15) cells infected with Hepatitis B virus; assay type: functional
[3] = Down regulation of Hsc70 protein level in human HepG2(2.2.15) cells at 100 ug/mL for 24 hrs by RT-PCR analysis; assay type: functional, cell-based
[4] = Down regulation of Hsc70 protein level in human HepG2(2.2.15) cells at 500 ug/mL for 24 hrs by RT-PCR analysis; assay type: functional, cell-based
[5] = tested on: Hepatitis B virus; assay: Antiviral activity against Hepatitis B virus infected in human HepG2(2.2.15) cells assessed as inhibition of intracellular HBV DNA replication at 100 ug/mL for 24 hrs by RT-PCR analysis; assay type: functional; set-up: scale not given: the % may be the effect or the level left
[6] = Down regulation of Hsc70 protein level in human HepG2(2.2.15) cells after 24 hrs by RT-PCR analysis; assay type: functional, cell-based

Structure (SMILES) | inhibition at 100 µg/mL [1] [%] | also measured
OCCCC[C@@H]1[C@H]2CCCN3CCC[C@@H](CN1Cc1ccccc1)[C@@H]23 | 25.5 | –
O=C(O)CCC[C@@H]1[C@H]2CCC[N+]3([O-])CCC[C@@H](CN1Cc1ccccc1)[C@@H]23 (some centres not stated) | 58.2 | –
COc1ccc(CN2C[C@@H]3CCCN4CCC[C@@H]([C@H]34)[C@H]2CCCC(=O)O)cc1 | 72.1 | fold change (FC) [2]: 1.3; Activity [3]: Active; Activity [4]: Active; Activity [5]: 77%; Activity [6]: Dose-dependent effect
O=C1CCC[C@@H]2[C@H]3CCC[N+]4([O-])CCC[C@@H](CN12)[C@@H]34 (some centres not stated) [OXYMATRINE] | 52 | Activity [5]: 56%; Activity [6]: Dose-dependent effect
[O-][N+]12CCC[C@H]3CN[C@H](CCCCO)[C@@H](CCC1)[C@H]32 (some centres not stated) [OXYMATRINOL] | < 10 | –
COc1cccc(CN2C[C@@H]3CCCN4CCC[C@@H]([C@H]34)[C@H]2CCCC(=O)O)c1 | 55.6 | –
O=C(O)CCC[C@H]1NC[C@@H]2CCCN3CCC[C@H]1[C@H]23 [MATRINIC ACID] | 46.2 | –
O=C(O)CCC[C@@H]1[C@H]2CCCN3CCC[C@@H](CN1C(=O)c1ccccc1)[C@@H]23 | 33.6 | –
O=C(O)CCC[C@@H]1[C@H]2CCCN3CCC[C@@H](CN1C(=O)CO)[C@@H]23 | < 10 | –
O=C(O)CCC[C@@H]1[C@H]2CCCN3CCC[C@@H](CN1S(=O)(=O)c1ccccc1)[C@@H]23 | 22.1 | –
CCCN1C[C@@H]2CCCN3CCC[C@@H]([C@H]23)[C@H]1CCCC(=O)O | < 10 | –
O=C(O)CCC[C@@H]1[C@H]2CCCN3CCC[C@@H](CN1CC1CC1)[C@@H]23 | < 10 | –
O=C(O)CCC[C@@H]1[C@H]2CCCN3CCC[C@@H](CN1C(=O)/C=C/c1ccccc1)[C@@H]23 | < 10 | –
Cc1cccc(OCC(=O)N2C[C@@H]3CCCN4CCC[C@@H]([C@H]34)[C@H]2CCCC(=O)O)c1 | < 10 | –
Cc1cccc(OC(C)C(=O)N2C[C@@H]3CCCN4CCC[C@@H]([C@H]34)[C@H]2CCCC(=O)O)c1 (some centres not stated) | < 10 | –
O=C(O)CCC[C@@H]1[C@H]2CCCN3CCC[C@@H](CN1Cc1ccccc1)[C@@H]23 | 55.9 | –
O=CN1C[C@@H]2CCCN3CCC[C@@H]([C@H]23)[C@H]1CCCC(=O)O | < 10 | –
OCCCC[C@H]1NC[C@@H]2CCCN3CCC[C@H]1[C@H]23 [MATRINOL] | 39.3 | –
Cc1ccc(S(=O)(=O)N2C[C@@H]3CCCN4CCC[C@@H]([C@H]34)[C@H]2CCCC(=O)O)cc1 | 39.8 | –
O=C(O)CCC[C@@H]1[C@H]2CCCN3CCC[C@@H](CN1CCO)[C@@H]23 | 53.7 | –
O=C(O)CCC[C@@H]1[C@H]2CCCN3CCC[C@@H](CN1C(=O)CCl)[C@@H]23 | < 10 | –
COc1ccc(CN2C[C@@H]3CCC[N+]4([O-])CCC[C@@H]([C@H]34)[C@H]2CCCC(=O)O)cc1 (some centres not stated) | 69.7 | –
CCN1C[C@@H]2CCCN3CCC[C@@H]([C@H]23)[C@H]1CCCC(=O)O | < 10 | –
COc1ccc(CN2C[C@@H]3CCCN4CCC[C@@H]([C@H]34)[C@H]2CCCCO)cc1 | 12.2 | –
C[N+]1(C)C[C@@H]2CCC[N+]3([O-])CCC[C@@H]([C@H]23)[C@H]1CCCC(=O)O (some centres not stated) | < 10 | –
O=C1CCC[C@@H]2[C@H]3CCCN4CCC[C@@H](CN12)[C@@H]34 [MATRINE] | 52.4 | –
O=C(O)CCC[C@H]1NC[C@@H]2CCC[N+]3([O-])CCC[C@H]1[C@H]23 (some centres not stated) [OXYMATRINIC ACID] | 45.5 | –
C[N+]1(C)C[C@@H]2CCCN3CCC[C@@H]([C@H]23)[C@H]1CCCC(=O)O | 14.1 | –
CC(=O)N1C[C@@H]2CCCN3CCC[C@@H]([C@H]23)[C@H]1CCCC(=O)O | 29.8 | –
O=C(O)CCC[C@@H]1[C@H]2CCC[N+]3([O-])CCC[C@@H](CN1CC1CC1)[C@@H]23 (some centres not stated) | < 10 | –
